Measured values: patent publication US20240239759A1, “ISOXAZOLINE COMPOSITIONS AND THEIR USE AS ANTIPARASITICS” (Intervet Inc., priority 2007, published 2024)
Read-outs that look alike come from different tables or passages of the source.

Experiments:
[1] = test system: brown dog ticks (R. sanguineus); assay: Efficacy against brown dog ticks on dogs (Example 5); assay type: in vivo, Rhipicephalus sanguineus; details: beagles, Day 2 (approx. 48 hr after treatment)
Procedure: (§1) On Day Zero, one group of 4 beagles was treated orally with gelatin capsules containing 20 mg/kg body weight of […]. Another group of 4 beagles was treated topically by washing with 2 L of solution containing 200 ppm body weight of […] dissolved in DMF-premix/tap water (1:100, based on volume). Finally, a group of 3 beagles remained untreated as the negative control. Two days before treatment on Day Zero, all the beagles were each infested with approximately 80 unfed adult fleas (C. felis) and approximately 60 unfed adult ticks (R. sanguineus). The parasite burden of each beagle was assessed on Day 2 (approximately 48 hr after the treatment) by removing and counting the fleas and ticks. Fleas and ticks were classified according to vitality (fleas: dead or alive; ticks: dead or alive, and engorged or not engorged). The efficacy was calculated from the mean number of vital fleas and ticks in the treated group (Mt) relative to the mean number of vital fleas and ticks in the untreated control group (Mc) using following formula: […]

[2] = Side effects in dogs (Example 5); assay type: in vivo; details: beagles; oral 20 mg/kg or topical 200 ppm
Procedure: as §1

[3] = Side effects in mice, mite study (Example 2B); assay type: in vivo; details: topical 100 ppm, oral or subcutaneous 10 mg/kg, twice 7 days apart
Procedure: The mice were divided into groups of three, and treated topically with 100 ppm body weight, orally with 10 mg/kg body weight, or subcutaneously with 10 mg/kg body weight of Compound 11-1, fipronil (positive control), or nothing (negative control). This treatment was then repeated 7 days later. The infestation rate per mouse (“+”=low infestation rate, “++”=medium infestation rate, “+++”=high infestation rate) was assessed repeatedly on days 1, 6, 9, 13, and 23. Efficacy was defined as the inhibition of the mite infestation rate on treated mice relative to the negative control group.

[4] = test system: brown dog ticks (R. sanguineus); assay: Further efficacy study against brown dog ticks on beagles (Example 6); assay type: in vivo, Rhipicephalus sanguineus
Procedure: Beagles were randomly assigned to 5 treatment groups of 4 animals each, and one untreated control group of 3 animals.
The dogs were infested with approximately 80 fleas (C. felis) and 60 ticks (R. sanguineus) on Days −2, 7, 14, 21, 28, 35, 42, and 49. Fleas and ticks were counted on Day 2 (approximately 48 h after treatment), as well as Days 9, 16, 23, 30, 37, 44, and 51 (approximately 48 hr after each post-treatment re-infestation) to evaluate the insecticidal and acaricidal activity in the treated groups. In Group B, an additional flea and tick infestation was conducted on Day 56, with a respective flea and tick count on Day 58. In addition to the flea and tick counts, blood samples were collected before the treatments, as well as approximately 2 hr, 4 hr, 8 hr, 24 hr, and 72 hr after the treatment on Day Zero, and then once on each of Days 7, 14, 21, 28, 35, 42, 49, and 56. The concentration of Compound 11-1 in blood plasma was analyzed by HPLC/MS/MS. The LOQ of this method was 5 ng/ml.

[5] = test system: cat fleas (Ctenocephalides felis); assay: Efficacy of various isoxazolines against cat fleas on mice (Example 3); assay type: in vivo; details: Ctenocephalides felis, po, mice, oral 20 mg/kg, infested 1 hr after treatment, read-out: Flea inhibition relative to negative control
Procedure: In this experiment, mice were randomly assigned to a treatment group or a negative control (untreated) group. Each group consisted of three mice. The mice in the treatment groups were orally administered 20 mg/kg bodyweight of various isoxazolines dissolved in 7% DMF-premix and 93% purified water (aqua ad injectabilia). The application volume of these treatments was 0.01 mL/g bodyweight. One hour after treatment, each mouse was sedated and generally infested (whole body) with 30 vital, adult fleas (C. felis). To achieve this, the sedated mice were placed into an infestation-jar, and the fleas were placed directly onto the fur. After approximately 30 minutes of feeding, fleas were recovered from the mice. Assessments for inhibition and mortality were conducted 1 hr, 24 hr, and 48 hr after each infestation. The efficacy was calculated as the percentage of inhibited fleas in the treatment groups relative to the negative control group.

## Cc1cc(C2=NOC(c3cc(Cl)cc(Cl)c3)(C(F)(F)F)C2)ccc1C(=O)NCC(=O)NCC(F)(F)F (racemic) [Compound 11-1, 4-[5-(3,5-dichlorophenyl)-5-trifluoromethyl-4,5-dihydroisoxazol-3-yl]-2-methyl-N-[(2,2,2-trifluoro-ethylcarbamoyl)-methyl]-benzamide]
[1]; oral gelatin capsules 20 mg/kg
  Tick efficacy: 100%
[1]; topical washing with 2 L of 200 ppm solution
  Tick efficacy: 100%
[2]
  Side effects: No side effects were observed
[3]
  Side effects: No side effects were observed
[4]; Group A: 1 mg/kg oral tablet, Day 2
  Efficacy against brown dog ticks: 99.4
[4]; Group A: 1 mg/kg oral tablet, Day 9
  Efficacy against brown dog ticks: 99.3
[4]; Group A: 1 mg/kg oral tablet, Day 16
  Efficacy against brown dog ticks: 98.3
[4]; Group A: 1 mg/kg oral tablet, Day 23
  Efficacy against brown dog ticks: 98.2
[4]; Group A: 1 mg/kg oral tablet, Day 30
  Efficacy against brown dog ticks: 98.9
[4]; Group A: 1 mg/kg oral tablet, Day 37
  Efficacy against brown dog ticks: 94.6
[4]; Group A: 1 mg/kg oral tablet, Day 44
  Efficacy against brown dog ticks: 82.0
[4]; Group A: 1 mg/kg oral tablet, Day 51
  Efficacy against brown dog ticks: 82.0
[4]; Group B: 1 mg/kg subcutaneous injectable solution, Day 2
  Efficacy against brown dog ticks: 100
[4]; Group B: 1 mg/kg subcutaneous injectable solution, Day 9
  Efficacy against brown dog ticks: 99.3
[4]; Group B: 1 mg/kg subcutaneous injectable solution, Day 16
  Efficacy against brown dog ticks: 100
[4]; Group B: 1 mg/kg subcutaneous injectable solution, Day 23
  Efficacy against brown dog ticks: 98.8
[4]; Group B: 1 mg/kg subcutaneous injectable solution, Day 30
  Efficacy against brown dog ticks: 99.5
[4]; Group B: 1 mg/kg subcutaneous injectable solution, Day 37
  Efficacy against brown dog ticks: 98.8
[4]; Group B: 1 mg/kg subcutaneous injectable solution, Day 44
  Efficacy against brown dog ticks: 95.1
[4]; Group B: 1 mg/kg subcutaneous injectable solution, Day 51
  Efficacy against brown dog ticks: 88.8
[4]; Group B: 1 mg/kg subcutaneous injectable solution, Day 58
  Efficacy against brown dog ticks: 74.0
[4]; Group C: 1 mg/kg topical spot-on with absorption enhancer, Day 2
  Efficacy against brown dog ticks: 81.9
[4]; Group C: 1 mg/kg topical spot-on with absorption enhancer, Day 9
  Efficacy against brown dog ticks: 98.7
[4]; Group C: 1 mg/kg topical spot-on with absorption enhancer, Day 16
  Efficacy against brown dog ticks: 94.8
[4]; Group C: 1 mg/kg topical spot-on with absorption enhancer, Day 23
  Efficacy against brown dog ticks: 98.2
[4]; Group C: 1 mg/kg topical spot-on with absorption enhancer, Day 30
  Efficacy against brown dog ticks: 96.2
[4]; Group C: 1 mg/kg topical spot-on with absorption enhancer, Day 37
  Efficacy against brown dog ticks: 87.0
[4]; Group C: 1 mg/kg topical spot-on with absorption enhancer, Day 44
  Efficacy against brown dog ticks: 76.5
[4]; Group C: 1 mg/kg topical spot-on with absorption enhancer, Day 51
  Efficacy against brown dog ticks: 55.3
[4]; Group D: 1 mg/kg topical spot-on with absorption enhancer and spreading agent, Day 2
  Efficacy against brown dog ticks: 83.1
[4]; Group D: 1 mg/kg topical spot-on with absorption enhancer and spreading agent, Day 9
  Efficacy against brown dog ticks: 96.1
[4]; Group D: 1 mg/kg topical spot-on with absorption enhancer and spreading agent, Day 16
  Efficacy against brown dog ticks: 98.3
[4]; Group D: 1 mg/kg topical spot-on with absorption enhancer and spreading agent, Day 23
  Efficacy against brown dog ticks: 98.2
[4]; Group D: 1 mg/kg topical spot-on with absorption enhancer and spreading agent, Day 30
  Efficacy against brown dog ticks: 96.2
[4]; Group D: 1 mg/kg topical spot-on with absorption enhancer and spreading agent, Day 37
  Efficacy against brown dog ticks: 94.1
[4]; Group D: 1 mg/kg topical spot-on with absorption enhancer and spreading agent, Day 44
  Efficacy against brown dog ticks: 73.8
[4]; Group D: 1 mg/kg topical spot-on with absorption enhancer and spreading agent, Day 51
  Efficacy against brown dog ticks: 63.4
[4]; Group E: 1 mg/kg topical spot-on in ethyl lactate, Day 2
  Efficacy against brown dog ticks: 70.6
[4]; Group E: 1 mg/kg topical spot-on in ethyl lactate, Day 9
  Efficacy against brown dog ticks: 90.2
[4]; Group E: 1 mg/kg topical spot-on in ethyl lactate, Day 16
  Efficacy against brown dog ticks: 95.9
[4]; Group E: 1 mg/kg topical spot-on in ethyl lactate, Day 23
  Efficacy against brown dog ticks: 91.5
[4]; Group E: 1 mg/kg topical spot-on in ethyl lactate, Day 30
  Efficacy against brown dog ticks: 97.8
[4]; Group E: 1 mg/kg topical spot-on in ethyl lactate, Day 37
  Efficacy against brown dog ticks: 89.2
[4]; Group E: 1 mg/kg topical spot-on in ethyl lactate, Day 44
  Efficacy against brown dog ticks: 79.8
[4]; Group E: 1 mg/kg topical spot-on in ethyl lactate, Day 51
  Efficacy against brown dog ticks: 59.6
[5]; 1 h, 1 hr after infestation
  pest or weed control at 20 mg/kg: 78.9%
[5]; 24 h, 24 hr after infestation
  pest or weed control at 20 mg/kg: 96.7%
[5]; 48 h, 48 hr after infestation
  pest or weed control at 20 mg/kg: 97.8%
